In general, pKi refers to the negative decadic logarithm of the Ki, by convention in mol/L.

20 molecules from patent US12637428B2, “Isoquinoline derivatives as SIK2 inhibitors” (Cancer Research Technology Limited, priority 2019, dated 2026) can be followed below.

Molecules are shown by their SMILES. pKi: −log10 of the molar value.

What all share (format): biochemical
For test [1], the target named is T1, SIK2 (Homo sapiens, UniProt Q9H0K1).
T1 construct: purchased Life Technologies
Nature of the test: SIK2 kinase assay, IMAP fluorescence polarization. The settings on record: 50 or 100 μM ATP, average. On the procedure:
(§1) SIK2, SIK1, SIK3, Abl, Src and EPHA2 Kinase Assays
(§2) SIK2, SIK1, SIK3, Abl, Src and EPHA2 assays were performed using an IMAP fluorescence polarization assay format (Molecular Devices Inc.). 0.6-13 nM of each kinase (Life Technologies) was incubated for 60 min at room temperature with 100 nM of either FAM-Abltide, FAM-Srctide or FAM-HDAC protein derived peptide (synthesized by Alta Biosciences, Birmingham UK). Assays were carried out in the presence of 50 or 100 μM ATP in either 20 mM Tris buffer (pH 7.2) containing 4 mM MgCl2, 0.2% BSA and 2 mM DTT (SIK2, SIK1, SIK3, Abl, Src); or 20 mM Tris buffer (pH 8.5) containing 20 mM MgCl2, 0.5% BSA, 0.2% Triton and 5 mM DTT (EPHA2). Typically, dose response analyses were performed over concentration ranges from 0.00005-1 μM. Reactions were stopped by adding 2 assay volumes of 0.25% (v/v) IMAP binding reagent in either an 85:15 ratio (SIK2, SIK1, SIK3, Abl, EPHA2) or 30:70 ratio (Src) of IMAP binding buffers A and B (Molecular Devices). After incubation to allow the detection reagents to bind to the phosphorylated peptide, fluorescence polarization was measured on a Tecan Infinite plate reader at excitation (470 nm) and emission (530 nm) wavelengths. Inhibition was calculated using no inhibitor and no enzyme controls as 0 and 100% inhibition, respectively.
(§3) Table 3 provides details of the inhibitory constant (nM) of compounds of the invention at SIK1, SIK2 and SIK3 and other kinases.
(In general: Polarisation of emitted light reports the rotation of a fluorescent probe.)

In test [2] the target is T2, SIK1 (Homo sapiens, UniProt P57059).
T2 construct: purchased Life Technologies
T2 sequence (P57059 whole entry): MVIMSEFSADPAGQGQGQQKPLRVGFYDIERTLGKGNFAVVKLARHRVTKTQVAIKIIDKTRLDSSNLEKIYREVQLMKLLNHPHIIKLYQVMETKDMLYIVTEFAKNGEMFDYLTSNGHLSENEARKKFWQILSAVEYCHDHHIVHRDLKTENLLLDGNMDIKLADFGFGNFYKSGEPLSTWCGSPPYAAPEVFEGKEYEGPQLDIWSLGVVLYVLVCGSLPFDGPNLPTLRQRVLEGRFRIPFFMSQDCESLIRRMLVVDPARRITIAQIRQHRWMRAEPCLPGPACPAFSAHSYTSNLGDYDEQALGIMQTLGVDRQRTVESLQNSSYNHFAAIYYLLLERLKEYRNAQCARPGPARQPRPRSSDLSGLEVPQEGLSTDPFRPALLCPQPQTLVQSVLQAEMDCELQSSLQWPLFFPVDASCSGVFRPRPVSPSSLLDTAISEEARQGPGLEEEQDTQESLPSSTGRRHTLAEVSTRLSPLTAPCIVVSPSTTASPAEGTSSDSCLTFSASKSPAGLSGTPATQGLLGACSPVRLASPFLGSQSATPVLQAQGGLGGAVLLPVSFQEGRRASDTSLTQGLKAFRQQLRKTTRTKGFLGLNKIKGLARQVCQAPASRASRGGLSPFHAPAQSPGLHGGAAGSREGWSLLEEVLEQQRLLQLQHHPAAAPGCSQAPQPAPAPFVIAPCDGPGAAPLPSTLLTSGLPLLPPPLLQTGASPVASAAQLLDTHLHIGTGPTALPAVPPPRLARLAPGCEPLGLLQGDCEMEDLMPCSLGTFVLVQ
Nature of the test: SIK1 kinase assay, IMAP fluorescence polarization. The settings on record: 50 or 100 μM ATP, average. On the procedure:
as §1, §2, §3

The target of test [3] is T3, SIK3 (Homo sapiens, UniProt Q9Y2K2).
T3 construct: purchased Life Technologies
T3 sequence (Q9Y2K2 whole entry): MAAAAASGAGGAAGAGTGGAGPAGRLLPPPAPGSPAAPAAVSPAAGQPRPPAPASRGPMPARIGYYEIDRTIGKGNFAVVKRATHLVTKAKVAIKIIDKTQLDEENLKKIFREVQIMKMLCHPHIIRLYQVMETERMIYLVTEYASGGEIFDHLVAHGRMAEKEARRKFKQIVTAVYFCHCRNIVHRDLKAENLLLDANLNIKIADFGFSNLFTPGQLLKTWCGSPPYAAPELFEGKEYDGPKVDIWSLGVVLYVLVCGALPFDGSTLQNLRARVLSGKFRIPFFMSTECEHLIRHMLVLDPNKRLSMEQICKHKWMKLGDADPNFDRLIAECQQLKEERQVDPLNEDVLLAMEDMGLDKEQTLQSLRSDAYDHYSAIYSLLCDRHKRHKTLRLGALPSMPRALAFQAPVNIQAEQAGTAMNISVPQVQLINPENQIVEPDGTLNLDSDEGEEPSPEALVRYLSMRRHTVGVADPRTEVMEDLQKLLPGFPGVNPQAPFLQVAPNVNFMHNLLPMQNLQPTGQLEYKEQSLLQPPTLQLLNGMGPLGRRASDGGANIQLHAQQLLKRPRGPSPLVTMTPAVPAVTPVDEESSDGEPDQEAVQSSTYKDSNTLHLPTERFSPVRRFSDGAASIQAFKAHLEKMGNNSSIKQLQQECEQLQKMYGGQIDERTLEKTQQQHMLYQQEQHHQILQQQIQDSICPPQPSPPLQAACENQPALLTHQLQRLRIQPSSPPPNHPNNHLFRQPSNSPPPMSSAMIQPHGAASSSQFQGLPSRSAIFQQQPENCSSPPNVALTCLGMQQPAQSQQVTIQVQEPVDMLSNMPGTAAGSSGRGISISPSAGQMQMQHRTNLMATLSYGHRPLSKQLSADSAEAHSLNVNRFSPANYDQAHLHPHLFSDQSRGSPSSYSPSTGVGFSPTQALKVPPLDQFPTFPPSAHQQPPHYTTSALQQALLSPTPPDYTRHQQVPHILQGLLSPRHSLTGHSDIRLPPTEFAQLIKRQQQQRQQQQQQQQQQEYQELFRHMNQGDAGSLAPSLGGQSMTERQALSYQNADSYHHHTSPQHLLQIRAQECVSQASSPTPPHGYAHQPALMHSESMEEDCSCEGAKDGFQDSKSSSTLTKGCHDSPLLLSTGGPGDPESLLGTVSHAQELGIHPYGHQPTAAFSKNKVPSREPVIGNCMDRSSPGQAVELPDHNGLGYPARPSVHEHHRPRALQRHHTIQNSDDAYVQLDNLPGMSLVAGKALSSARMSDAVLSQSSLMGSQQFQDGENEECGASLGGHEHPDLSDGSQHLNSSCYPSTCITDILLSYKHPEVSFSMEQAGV
Nature of the test: SIK3 kinase assay, IMAP fluorescence polarization. The settings on record: 50 or 100 μM ATP, average. On the procedure:
as §1, §2, §3

Test [4] addresses T4, Abl (Homo sapiens, UniProt P00519).
T4 construct: purchased Life Technologies
Kind of test: Abl kinase assay, IMAP fluorescence polarization. As to conditions: 50 or 100 μM ATP, average. The method, then:
as §1, §2, §3

Test [5] concerns the target T5, Src (Homo sapiens, UniProt P12931).
T5 construct: purchased Life Technologies
Nature of the test: Src kinase assay, IMAP fluorescence polarization. The settings on record: 50 or 100 μM ATP, average. The method, then: as §1, §2, §3

Test [6] deals with T6, EPHA2 (Homo sapiens, UniProt P29317).
T6 construct: purchased Life Technologies
Kind of test: EPHA2 kinase assay, IMAP fluorescence polarization. The settings on record: 50 or 100 μM ATP, Tris pH 8.5, average. The method, then: as §1, §2, §3

T1 sequence (Q9H0K1 whole entry): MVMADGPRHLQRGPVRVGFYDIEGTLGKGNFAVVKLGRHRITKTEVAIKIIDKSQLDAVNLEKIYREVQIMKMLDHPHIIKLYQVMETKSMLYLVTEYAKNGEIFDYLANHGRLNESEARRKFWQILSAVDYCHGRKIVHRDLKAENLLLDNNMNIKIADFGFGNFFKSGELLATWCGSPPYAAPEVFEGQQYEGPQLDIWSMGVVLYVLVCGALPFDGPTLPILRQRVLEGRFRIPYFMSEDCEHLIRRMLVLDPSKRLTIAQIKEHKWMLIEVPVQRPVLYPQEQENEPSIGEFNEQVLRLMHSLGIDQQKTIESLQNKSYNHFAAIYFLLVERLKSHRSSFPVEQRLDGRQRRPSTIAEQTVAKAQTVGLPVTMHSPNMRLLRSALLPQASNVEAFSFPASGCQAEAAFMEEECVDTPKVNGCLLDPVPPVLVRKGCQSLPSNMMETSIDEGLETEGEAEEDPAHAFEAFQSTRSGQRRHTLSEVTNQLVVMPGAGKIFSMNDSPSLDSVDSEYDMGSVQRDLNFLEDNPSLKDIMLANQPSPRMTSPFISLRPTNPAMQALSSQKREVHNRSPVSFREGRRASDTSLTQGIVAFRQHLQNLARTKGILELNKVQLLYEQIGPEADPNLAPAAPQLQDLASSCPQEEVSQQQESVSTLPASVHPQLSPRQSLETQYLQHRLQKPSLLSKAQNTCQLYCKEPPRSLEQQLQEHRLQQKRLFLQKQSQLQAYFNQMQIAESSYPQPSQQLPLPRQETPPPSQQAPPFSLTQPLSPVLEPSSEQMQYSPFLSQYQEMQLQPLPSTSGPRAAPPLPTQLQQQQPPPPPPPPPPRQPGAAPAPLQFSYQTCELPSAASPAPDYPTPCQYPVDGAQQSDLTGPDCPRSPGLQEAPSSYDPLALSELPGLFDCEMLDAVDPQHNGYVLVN
T4 sequence (P00519 whole entry): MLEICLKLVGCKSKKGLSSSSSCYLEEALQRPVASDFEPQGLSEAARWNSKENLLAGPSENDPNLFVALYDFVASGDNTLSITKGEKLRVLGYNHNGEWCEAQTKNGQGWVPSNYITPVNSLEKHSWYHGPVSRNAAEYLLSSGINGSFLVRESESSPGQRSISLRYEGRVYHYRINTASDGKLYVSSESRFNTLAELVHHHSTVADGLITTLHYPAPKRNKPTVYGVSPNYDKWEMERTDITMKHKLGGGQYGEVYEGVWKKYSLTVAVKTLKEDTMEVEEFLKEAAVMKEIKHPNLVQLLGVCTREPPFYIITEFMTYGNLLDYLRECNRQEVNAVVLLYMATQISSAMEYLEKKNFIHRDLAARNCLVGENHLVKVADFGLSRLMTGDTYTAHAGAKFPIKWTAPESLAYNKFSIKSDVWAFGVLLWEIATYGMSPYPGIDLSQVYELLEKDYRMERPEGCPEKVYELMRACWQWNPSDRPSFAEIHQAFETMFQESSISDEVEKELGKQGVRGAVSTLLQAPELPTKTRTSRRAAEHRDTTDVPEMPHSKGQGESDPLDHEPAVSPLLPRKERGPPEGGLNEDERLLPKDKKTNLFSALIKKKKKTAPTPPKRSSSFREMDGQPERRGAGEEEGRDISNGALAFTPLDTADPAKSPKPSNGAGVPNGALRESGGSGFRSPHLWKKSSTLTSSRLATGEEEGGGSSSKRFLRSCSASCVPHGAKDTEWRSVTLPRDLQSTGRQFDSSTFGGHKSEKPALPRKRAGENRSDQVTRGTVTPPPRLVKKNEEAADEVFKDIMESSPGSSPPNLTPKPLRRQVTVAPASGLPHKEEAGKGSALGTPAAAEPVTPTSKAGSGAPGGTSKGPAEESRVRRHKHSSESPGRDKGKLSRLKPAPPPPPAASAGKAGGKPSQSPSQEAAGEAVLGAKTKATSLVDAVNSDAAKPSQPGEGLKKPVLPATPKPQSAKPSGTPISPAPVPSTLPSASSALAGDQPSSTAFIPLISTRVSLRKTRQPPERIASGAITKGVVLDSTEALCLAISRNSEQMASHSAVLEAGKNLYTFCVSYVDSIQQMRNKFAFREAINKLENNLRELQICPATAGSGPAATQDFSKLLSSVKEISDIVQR
T5 sequence (P12931 whole entry): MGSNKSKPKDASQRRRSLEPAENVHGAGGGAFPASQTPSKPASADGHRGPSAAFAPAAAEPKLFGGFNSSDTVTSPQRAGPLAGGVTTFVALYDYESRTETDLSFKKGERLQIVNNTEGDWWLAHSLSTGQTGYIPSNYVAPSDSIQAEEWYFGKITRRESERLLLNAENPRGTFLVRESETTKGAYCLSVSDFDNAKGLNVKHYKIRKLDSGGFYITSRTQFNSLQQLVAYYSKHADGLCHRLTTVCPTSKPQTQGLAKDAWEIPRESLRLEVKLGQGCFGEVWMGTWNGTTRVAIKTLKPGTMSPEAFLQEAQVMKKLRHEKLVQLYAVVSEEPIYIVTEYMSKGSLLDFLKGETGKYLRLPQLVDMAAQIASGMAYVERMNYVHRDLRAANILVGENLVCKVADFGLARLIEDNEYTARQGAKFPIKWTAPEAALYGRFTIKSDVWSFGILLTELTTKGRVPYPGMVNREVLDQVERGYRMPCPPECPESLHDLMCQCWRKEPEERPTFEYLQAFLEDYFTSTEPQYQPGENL

Turning to `Cc1cccc(F)c1-c1cc(NC2CCN(C)CC2)c2ncncc2c1` [Example 125, 6-(2-Fluoro-6-methyl-phenyl)-N-(1-methyl-4-piperidyl)quinazolin-8-amine], the negative logarithm of the Ki (pKi) was 8.86 in test [1]; 8.52 in test [2]; 8.30 in test [3]; less than 6.00 in test [4]; less than 6.00 in test [5]; 6.61 in test [6].
Regarding `Cc1cccc(F)c1-c1cc(N[C@@H]2CCN(C)C2)c2cc(N)ncc2c1` [Example 69, 7-(2-fluoro-6-methyl-phenyl)-N5-[(3R)-1-methylpyrrolidin-3-yl]isoquinoline-3,5-diamine], the negative logarithm of the Ki (pKi) in test [1] was 10.01; in test [2], 9.52; in test [3] it was 9.01; in test [4], 8.29; in test [5], 7.45; in test [6], less than 6.00.
For `CC(=O)NC1CCN(c2cc(-c3c(C)cccc3F)cc3cnc(N)cc23)CC1` [Example 114, N-[1-[3-amino-7-(2-fluoro-6-methyl-phenyl)-5-isoquinolyl]-4-piperidyl]acetamide], the pKi in test [1] was 9.21; in test [2], 7.92; in test [3], 7.69; in test [4], 7.78; in test [5] it was 5.80; in test [6], less than 6.00.
For `Cc1cccc(F)c1-c1cc(N[C@@H]2CCCN(C)C2)c2cc(N)ncc2c1` [Example 85, 7-(2-fluoro-6-methyl-phenyl)-N5-[(3R)-1-methyl-3-piperidyl]isoquinoline-3,5-diamine], the pKi in test [1] was 10.04; in test [2] it was 9.21; in test [3] it was 8.79; in test [4], 8.13; in test [5], 7.40; in test [6], 6.59.
Consider `Cc1cccc(F)c1-c1cc(N[C@@H]2CCNC2)c2cc(N)ncc2c1` [Example 4, 7-(2-fluoro-6-methyl-pheny)-N5-[(3R)-pyrrolidin-3-yl]isoquinoline-3,5-diamine], for which the negative logarithm of the Ki (pKi) in test [1] is 10.15; in test [2] it was 9.45; in test [3] it was 9.64; in test [4], 8.11; in test [5], 6.86; in test [6], 6.19.
With `CC(=O)N[C@@H]1CCN(c2cc(-c3c(C)cccc3F)cc3cnc(N)cc23)C1` [Example 113, N-[(3R)-1-[3-amino-7-(2-fluoro-6-methyl-phenyl)-5-isoquinolyl]pyrrolidin-3-yl]acetamide], the pKi in test [1] is 8.01; in test [2], 7.13; in test [3], 6.63; in test [4], 7.05; in test [5] it was 5.97; in test [6], less than 5.00.
With `Cc1cccc(F)c1-c1cc(NC[C@H]2CCCCN2C)c2cc(N)ncc2c1` [Example 56, 7-(2-fluoro-6-methyl-phenyl)-N5-[[(2R)-1-methyl-2-piperidyl]methyl] isoquinoline-3,5-diamine], the negative-log Ki (pKi) in test [1] was 9.24; in test [2] it was 8.98; in test [3], 8.20; in test [4], 7.32; in test [5] it was 6.64; in test [6], 6.62.
Turning to `Cc1cccc(F)c1-c1cc(NC[C@@H]2CCCN2)c2cc(N)ncc2c1` [Example 13, 7-(2-fluoro-6-methyl-phenyl)-N5-[[(2S)-pyrrolidin-2-yl]methyl]isoquinoline-3,5-diamine], the pKi in test [1] was 9.72; in test [2] it was 9.30; in test [3], 8.99; in test [4] it was 8.48; in test [5], 7.61; in test [6], 6.84.
`Cc1cccc(Cl)c1-c1cc(NC2CN(C)C2)c2ccncc2c1` [Example 67, 7-(2-chloro-6-methyl-phenyl)-N-(1-methylazetidin-3-yl)isoquinolin-5-amine]: the pKi was 7.93 in test [1]; 7.98 in test [2]; 7.57 in test [3]; 7.03 in test [4]; 6.60 in test [5]; 7.30 in test [6].
Consider `Cc1cccc(Cl)c1-c1cc(NC2CCN(C)CC2)c2cc(N)ncc2c1` [Example 62, 7-(2-Chloro-6-methyl-phenyl)-N5-(1-methyl-4-piperidyl)isoquinoline-3,5-diamine], for which the negative-log Ki (pKi) is 9.87 in test [1]; 9.31 in test [2]; 8.53 in test [3]; 6.68 in test [4]; 6.51 in test [5]; 6.70 in test [6].
Consider `CNC1CN(c2cc(-c3c(C)cccc3F)cc3cnc(N)cc23)C1` [Example 29, 7-(2-Fluoro-6-methyl-phenyl)-5-[3-(methylamino)azetidin-1-yl]isoquinolin-3-amine], for which the pKi in test [1] was 10.25; in test [2], 9.42; in test [3], 9.35; in test [4], 7.71; in test [5], 7.01; in test [6], 6.78.
Regarding `Cc1cccc(F)c1-c1cc(C(=O)NC2CN(C)C2)c2cc(N)ncc2c1` [Example 100, 3-amino-7-(2-fluoro-6-methyl-phenyl)-N-(1-methylazetidin-3-yl)isoquinoline-5-carboxamide], the negative logarithm of the Ki (pKi) is 8.36 in test [1]; 7.93 in test [2]; 7.21 in test [3]; 8.44 in test [4]; 7.38 in test [5]; 6.88 in test [6].
As to `CN[C@@H]1CCN(c2cc(-c3c(C)cccc3F)cc3cnc(N)cc23)C1` [Example 24, 7-(2-fluoro-6-methyl-phenyl)-5-[(3R)-3-(methylamino)pyrrolidin-1-yl]isoquinolin-3-amine], the pKi was 9.40 in test [1]; 8.63 in test [2]; 8.12 in test [3]; 7.47 in test [4]; 6.49 in test [5]; 6.83 in test [6].
For the molecule `Cc1cccc(Cl)c1-c1cc(NC2CNC2)c2cc(N)ncc2c1` [Example 31, N5-(azetidin-3-yl)-7-(2-chloro-6-methyl-phenyl)isoquinoline-3,5-diamine], the negative logarithm of the Ki (pKi) is 9.01 in test [1]; 8.59 in test [2]; 8.02 in test [3]; 6.74 in test [4]; 6.50 in test [5]; less than 6.00 in test [6].
Consider `Cc1cccc(F)c1-c1cc(NC2CN(C)C2)c2cc(N)ncc2c1` [Example 68, 7-(2-Fluoro-6-methyl-phenyl)-N5-(1-methylazetidin-3-yl)isoquinoline-3,5-diamine], for which the pKi in test [1] was 10.00; in test [2], 9.27; in test [3], 9.00; in test [4], 7.75; in test [5], 6.80; in test [6], 6.49.
Regarding `Cc1cccc(F)c1-c1cc(NC2CCNCC2)c2ccncc2c1` [Example 49, 7-(2-Fluoro-6-methyl-phenyl)-N-(4-piperidyl)isoquinolin-5-amine], the pKi was 9.94 in test [1]; 9.30 in test [2]; 9.11 in test [3]; less than 6.00 in test [4]; 6.66 in test [5]; 6.76 in test [6].
For the molecule `Cc1cccc(F)c1-c1cc(OC2CNC2)c2cc(N)ncc2c1` [Example 47, 5-(azetidin-3-yloxy)-7-(2-fluoro-6-methyl-phenyl)isoquinolin-3-amine], the negative-log Ki (pKi) in test [1] is 9.77; in test [2], 9.00; in test [3], 8.68; in test [4] it was 7.87; in test [5], 6.14; in test [6] it was 5.97.
Turning to `Cc1cccc(F)c1-c1cc(NC2CCN(C)CC2)c2ccncc2c1` [Example 103, 7-(2-Fluoro-6-methyl-phenyl)-N-(1-methyl-4-piperidyl)isoquinolin-5-amine], the pKi in test [1] is 9.53; in test [2], 8.65; in test [3] it was 8.30; in test [4], 7.01; in test [5] it was 6.85; in test [6] it was 6.72.
Regarding `Cc1cccc(Cl)c1-c1cc(NC2CN(C)C2)c2cc(N)ncc2c1` [Example 63, 7-(2-chloro-6-methyl-phenyl)-N5-(1-methylazetidin-3-yl)isoquinoline-3,5-diamine], the pKi was 9.00 in test [1]; 8.70 in test [2]; 8.00 in test [3]; 6.98 in test [4]; 6.82 in test [5]; 6.66 in test [6].
Consider `Cc1cccc(F)c1-c1cc(NC[C@H]2CCCNC2)c2cc(N)ncc2c1` [Example 2, 7-(2-fluoro-6-methyl-phenyl)-N5-[[(3S)-3-piperidyl]methyl]isoquinoline-3,5-diamine], for which the pKi is 9.74 in test [1]; 9.28 in test [2]; 8.86 in test [3]; 7.95 in test [4]; 6.80 in test [5]; 7.19 in test [6].
